Test results as given in patent US20050064044A1, “GSK-3beta inhibitors in the treatment of bone-related diseases” (priority 2003, published 2005).
Entries after “also recorded” stand apart in the source; their conditions may differ.

Legend:
C3H10T1/2 cells = test: Alkaline phosphatase (ALP) osteoblast differentiation marker in C3H10T1/2 cells; format: cell-based; details: C3H10T1/2 cells stimulated for 48 h; ALP activity normalized for total protein; FIG. 2
Text: In vitro model used the pluripotent mesenchymal cell line C3H10T1/2 that is able to differentiate into osteoblasts when triggered with the right compound or protein. The ability of a compound to induce these C3H10T1/2 cells to differentiate into osteoblasts can be monitored by, for instance, measuring the expression of the osteoblast differentiation marker, alkaline phosphatase (ALP).
Whether inhibition of GSK-3β by LiCl in C3H10T1/2 cells leads to the expression of ALP was investigated.
C3H10T1/2 cells were stimulated with LiCl or with NaCl for 48 h. ALP activity was determined in cell lysates using Alkaline Phosphatase Opt kit (Roche Molecular Biochemicals). Cell lysates were analyzed for protein content using micro-BCA Assay kit (Pierce), and ALP activity was normalized for total protein concentration.

LRP5 knockout mice = test: Bone phenotype of LRP5 knockout mice, micro-CT tomodensitometric analysis of tibia; format: in vivo
Procedure: In vivo model uses LRP5 knock-out animals that show osteopenia phenotype resulting from the absence of the Wnt canonical signalling pathway, said signalling pathway involving GSK-3β. Thanks to this model, the effect of GSK-3β inhibitors on bone mass can be observed.
LRP5 knockout mouse model has been described as an osteopenic mouse model (Kato et al., 2002).
LiCl solution was prepared in distillated water at 55 mg/ml. Compound was administered by micropump Alzet (ref: 1002, Charles Rivers, France) to 2-3 week-old LRP5 knockout (KO) mice for 2 weeks. Tibia were prepared for tomographic analysis (Tomodensitometer Scanco μCT20, Basserdorf, Switszerland). Micro-CT scans of the metaphyseal tibia were performed at an isotropic resolution of 9 μm, to obtain trabecular bone structural parameters. Using a two- and three-dimensional model and a semiautomatic contouring algorithm, three-dimensional bone volume, bone surface, and trabecular thickness were determined (FIG. 6).
Statistical significance was determined by the ANOVA unpaired t'test.
Results of tomodensitometric analysis of metaphyseal trabecular part of tibia from 5 week-old and 4 week-old LRP5-KO mice treated with vehicle or LiCl (200 mg/kg/d) during 15 days are given in FIGS. 4 and 5, respectively.

[1] = tested on: Wnt/β-catenin signalling (GSK-3β inhibition) in C3H10T1/2 cells; test: Wnt signalling luciferase reporter construct in C3H10T1/2 cells; format: cell-based; details: C3H10T1/2 cells stimulated for 24 h; firefly normalized to Renilla luciferase; FIG. 1
Procedure: Whether inhibition of GSK-3β in C3H10T1/2 cells leads to Wnt/β-catenin signalling activation was investigated.
C3H10T1/2 cells were transiently transfected using Fugen6 (Boehringer) with a Wnt signalling luciferase reporter construct (van de Wetering et al., 1997). To assess transfection efficacy, 20 ng of pRL-TK (Promega) encoding a Renilla luciferase gene downstream of a minimal HSV-TK promoter was systematically added to the transfection mix. Cells were stimulated with LiCl or with NaCl for 24 h. Cells were lysated and luciferase assays were performed with the Dual Luciferase Assay Kit (Promega) according to the manufacturer's instructions. 10 μl of cell lysate was assayed first for firefly luciferase and then for Renilla luciferase activity. Firefly luciferase activity was normalized to Renilla luciferase activity.

[2] = 4 week-old LRP5-KO mice treated for 15 days, vs vehicle, FIG. 6B/6D
[3] = 4 week-old LRP5-KO mice, 200 mg/kg/d during 15 days, metaphyseal trabecular tibia, vs vehicle, FIG. 5
[4] = 5 week-old LRP5-KO mice, 200 mg/kg/d during 15 days, metaphyseal trabecular tibia, vs vehicle, FIG. 4

[Cl-].[Li+] [LiCl, lithium]
expression of the ALP osteoblast differentiation marker (C3H10T1/2 cells): able to stimulate the expression of the ALP osteoblast differentiation marker
bone volume, 3-D reconstruction of trabecular part of tibia (LRP5 knockout mice; [2]): increase
trabecular thickness, 3-D reconstruction of trabecular part of tibia (LRP5 knockout mice; [2]): increase
BV/TV (bone volume) (LRP5 knockout mice; [3]): significantly increase
Tb.N (trabecular number) (LRP5 knockout mice; [3]): significantly increase
Tb.Th (trabecular thickness) (LRP5 knockout mice; [3]): significantly increase
BV/TV (bone volume) (LRP5 knockout mice; [4]): significantly increase
Tb.N (trabecular number) (LRP5 knockout mice; [4]): significantly increase
bone phenotype (osteopenia) of LRP5 knockout mice (LRP5 knockout mice; LRP5-KO mice, FIGS. 4 and 5): partially reversed; also recorded: partly restored
luciferase expression (Wnt-signalling luciferase reporter) [1]: able to activate luciferase expression
